Measured values from PubChem BioAssay (NCI).
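Five compound concentrations were applied to cells in 96-well plates for 48 hours; endpoints were derived by simple linear interpolation of the resulting dose-response curve. GI50: concentration for 50% inhibition of growth. The concentration for full growth arrest is given as TGI.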

These compounds were tested on TK-10 renal (assay: growth of human tumour cells (NCI), 48 h).
In the case of NC(CSC(c1ccccc1)(c1ccccc1)c1ccc2c(c1)OCO2)C(=O)O (stereo unspecified), the GI50 is reported as 10.6 µM and the TGI is reported as > 100 µM.
With C=CCc1cc(OC)c2c(c1)C(O)CC(c1ccc(OC)c(OC)c1)O2 (stereo unspecified) the TGI was > 100 µM.
O=C(NCCNc1nccc(-c2c(-c3cccc(O)c3)nc3sccn23)n1)c1ccccc1O was tested, and the GI50 was 6.17 µM and the TGI was 30.3 µM.
CCCCCCCC(=O)SCC/C=C/[C@@H]1CC(=O)NCc2cccc(n2)C2=N[C@@](C)(CS2)C(=O)N[C@@H](C(C)C)C(=O)N1 gave a GI50 of 1.09 µM and a TGI of 24.8 µM.
CC(C)=CCCc1c(C)ccc2c1C(=O)C(=O)C(C(C)C)=C2 gave a TGI of 8.81 µM.
In the case of COc1ccc2c(c1)C(=O)/C(=C/c1ccc(OCC(=O)Nc3nccs3)cc1)O2, the GI50 is reported as 3.39 µM and the TGI is reported as 17.8 µM.
Compound Cc1cnc(NC(=O)C(Cc2ccccc2)NC(=O)c2ccccc2)s1 (stereo unspecified) has a GI50 of 10.2 µM and a TGI of 30.7 µM.
For CCOC(=O)COc1cccc2c1C(=O)CCO2, the TGI was > 100 µM.
With CSc1ccc(/C=C2\CN(C)C/C(=C\c3ccc(SC)cc3)C2=O)cc1 the TGI was > 100 µM.
With Nc1ccc(C(=O)N/C(=C\c2ccc3c(c2)OCO3)c2nc3[nH]c(=S)[nH]c(=O)c3[nH]2)cc1 the TGI was > 100 µM.
Work on O[C@H]1[C@H]2c3cc4c(cc3CN3CCC(=C[C@@H]1O)[C@H]23)OCO4 yielded a TGI of 11.9 µM.
For COC(=O)[C@@]12C3=NO[C@]1(C(=O)OC)C(O[Si](C)(C)C(C)(C)C)[C@H]1OC(C)(C)O[C@H]1[C@@H]2C(OCc1ccccc1)CC3 (stereo partly specified), the TGI was > 100 µM.
In the case of O=C(O)c1cc(C(=O)O)cc(N2C(=O)c3ccccc3C2=O)c1, the TGI is reported as > 100 µM.
For CNC(=O)c1ccccc1Nc1nc(Nc2ccc(N3CCOCC3)cc2OC)ncc1Cl, the GI50 was 0.197 µM and the TGI was 2.01 µM.
CCN(CC)CC(C(=O)Nc1c(C)cccc1C)/C(C)=N\NC(=O)C[N+](C)(C)C (stereo unspecified) was tested, and the TGI was > 100 µM.
O=[S@@]1Nc2ccc(Br)cc2S1 was tested, and the TGI was > 100 µM.
For CC(=O)C(CN(C(C)C)C(C)C)C(c1ccccc1)c1c(O)c2ccccc2oc1=O (stereo unspecified), the TGI was > 100 µM.
With COc1ccc2c(c1)C1(C=N2)CCN(C(C)=O)CC1 the TGI was > 100 µM.
In the case of O=C1NC2(CCCCC2)C2CCCCC(O)C12 (stereo unspecified), the TGI is reported as > 100 µM.
With COc1ccc(-n2/c(=N/C(=S)N(C)C)ss/c2=N\C(=S)N(C)C)cc1 the TGI was > 100 µM.
With CCOC(=O)C1=C(C)CC2C(=O)OC(=O)C2C1(C)C (stereo unspecified) the TGI was > 100 µM.
With Oc1ccc(Cl)cc1-c1cc(-c2ccccc2Cl)[nH]n1 the GI50 was 29.4 µM and the TGI was > 100 µM.
For CCOC(=O)C(Sc1ccccc1)c1c(OC)cc(=O)oc1/C=[N+](/[O-])c1ccc(N(C)C)cc1 (stereo unspecified), the TGI was 89.5 µM.
In the case of CNC(=O)c1cc(Oc2ccc3nc(NC(=O)Nc4ccc(Cl)c(C(F)(F)F)c4)sc3c2)ccn1, the GI50 is reported as 2.29 µM and the TGI is reported as 4.62 µM.
In the case of C/C(CCn1[nH]c(=O)ccc1=O)=N\O, the TGI is reported as > 100 µM.
In the case of COc1ccccc1NC(=O)CC(=O)n1nc(C)c(N=Nc2ccccc2C(=O)O)c1C, the TGI is reported as > 100 µM.
With CC(=O)N1[C@H](C(=O)O)CS[C@H]1c1ccncc1 the TGI was > 100 µM.
CC1(C)OC(=O)C(=Cc2ccc(O)cc2)C(=O)O1 was tested, and the TGI was > 100 µM.
COc1ccc(C2=CSc3cc(Cl)c(C)cc3S(=O)(=O)N2C(C)=O)cc1 was tested, and the GI50 was 17.8 µM and the TGI was 46.7 µM.
For COc1cccc(NC(=O)CC(=O)n2nc(C)c(N=Nc3ccccc3)c2C)c1, the TGI was > 100 µM.
For O=C(O)CCSC(=O)Nc1cccc(F)c1, the TGI was > 100 µM.
CCCCCCCCSC1=CC(=O)c2nc3ccccc3c3ccnc1c23 was tested, and the GI50 was > 100 µM and the TGI was > 100 µM.
For CCNC1C2(CCCCC2)NC(=O)C12CCCCC2 (stereo unspecified), the TGI was > 100 µM.
In the case of O=c1n(CC2CO2)c(=O)n(CC2CO2)n1CC1CO1 (stereo unspecified), the GI50 is reported as 27.9 µM and the TGI is reported as > 100 µM.
For c1cc2c(cc1NC1=NCCO1)CCC2, the TGI was > 10 µM.

What follows are compounds tested on SF-295 CNS (assay: growth of human tumour cells (NCI), 48 h).
In the case of NC(CSC(c1ccccc1)(c1ccccc1)c1ccc2c(c1)OCO2)C(=O)O (stereo unspecified), the GI50 is reported as 0.352 µM and the TGI is reported as > 48.4 µM.
With C=CCc1cc(OC)c2c(c1)C(O)CC(c1ccc(OC)c(OC)c1)O2 (stereo unspecified) the TGI was > 100 µM.
O=C(NCCNc1nccc(-c2c(-c3cccc(O)c3)nc3sccn23)n1)c1ccccc1O was tested, and the GI50 was 4.18 µM and the TGI was 26.6 µM.
Compound CCCCCCCC(=O)SCC/C=C/[C@@H]1CC(=O)NCc2cccc(n2)C2=N[C@@](C)(CS2)C(=O)N[C@@H](C(C)C)C(=O)N1 has a GI50 of 0.804 µM and a TGI of 8.59 µM.
CC(C)=CCCc1c(C)ccc2c1C(=O)C(=O)C(C(C)C)=C2 was tested, and the TGI was > 22 µM.
COC(=O)[C@@H](C)C[C@H](Cc1ccc(F)cc1)NC(=O)c1csc([C@@H](C[C@H](C(C)C)N(C)C(=O)[C@@H](NC(=O)[C@H]2CCCCN2C)C(C)C)OC(C)=O)n1 was tested, and the TGI was > 16.7 µM.
In the case of CCOC(=O)COc1cccc2c1C(=O)CCO2, the TGI is reported as > 100 µM.
CSc1ccc(/C=C2\CN(C)C/C(=C\c3ccc(SC)cc3)C2=O)cc1 was tested, and the TGI was > 100 µM.
Nc1ccc(C(=O)N/C(=C\c2ccc3c(c2)OCO3)c2nc3[nH]c(=S)[nH]c(=O)c3[nH]2)cc1 was tested, and the TGI was > 100 µM.
In the case of O[C@H]1[C@H]2c3cc4c(cc3CN3CCC(=C[C@@H]1O)[C@H]23)OCO4, the TGI is reported as > 68.8 µM.
COC(=O)[C@@]12C3=NO[C@]1(C(=O)OC)C(O[Si](C)(C)C(C)(C)C)[C@H]1OC(C)(C)O[C@H]1[C@@H]2C(OCc1ccccc1)CC3 (stereo partly specified) was tested, and the TGI was > 100 µM.
O=C(O)c1cc(C(=O)O)cc(N2C(=O)c3ccccc3C2=O)c1 was tested, and the TGI was > 100 µM.
CNC(=O)c1ccccc1Nc1nc(Nc2ccc(N3CCOCC3)cc2OC)ncc1Cl was tested, and the GI50 was 0.503 µM and the TGI was 11.1 µM.
COc1c2ccoc2c(/C=C/C=O)c2oc(-c3ccccc3)cc(=O)c12 was tested, and the GI50 was 13.6 µM and the TGI was 97.9 µM.
For CCN(CC)CC(C(=O)Nc1c(C)cccc1C)/C(C)=N\NC(=O)C[N+](C)(C)C (stereo unspecified), the TGI was > 100 µM.
For O=[S@@]1Nc2ccc(Br)cc2S1, the TGI was > 100 µM.
For CC(=O)C(CN(C(C)C)C(C)C)C(c1ccccc1)c1c(O)c2ccccc2oc1=O (stereo unspecified), the TGI was > 100 µM.
In the case of COc1ccc2c(c1)C1(C=N2)CCN(C(C)=O)CC1, the TGI is reported as > 100 µM.
In the case of O=C1NC2(CCCCC2)C2CCCCC(O)C12 (stereo unspecified), the TGI is reported as > 100 µM.
COc1ccc(-n2/c(=N/C(=S)N(C)C)ss/c2=N\C(=S)N(C)C)cc1 was tested, and the TGI was > 100 µM.
For CCOC(=O)C1=C(C)CC2C(=O)OC(=O)C2C1(C)C (stereo unspecified), the TGI was > 100 µM.
For Oc1ccc(Cl)cc1-c1cc(-c2ccccc2Cl)[nH]n1, the GI50 was 8.71 µM and the TGI was > 100 µM.
CCOC(=O)C(Sc1ccccc1)c1c(OC)cc(=O)oc1/C=[N+](/[O-])c1ccc(N(C)C)cc1 (stereo unspecified) showed a TGI of 67 µM.
CNC(=O)c1cc(Oc2ccc3nc(NC(=O)Nc4ccc(Cl)c(C(F)(F)F)c4)sc3c2)ccn1 showed a GI50 of 1.79 µM and a TGI of 3.71 µM.
C/C(CCn1[nH]c(=O)ccc1=O)=N\O was tested, and the TGI was > 100 µM.
With COc1ccccc1NC(=O)CC(=O)n1nc(C)c(N=Nc2ccccc2C(=O)O)c1C the TGI was > 100 µM.
In the case of CC(=O)N1[C@H](C(=O)O)CS[C@H]1c1ccncc1, the TGI is reported as > 100 µM.
CC1(C)OC(=O)C(=Cc2ccc(O)cc2)C(=O)O1 was tested, and the TGI was > 100 µM.
In the case of CC(=O)OC1COC(n2c(=S)n(-c3ccc(C)cc3)c(=O)c3ccccc32)C(OC(C)=O)C1OC(C)=O (stereo unspecified), the TGI is reported as > 100 µM.
For COc1cccc(NC(=O)CC(=O)n2nc(C)c(N=Nc3ccccc3)c2C)c1, the TGI was > 100 µM.
O=C(O)CCSC(=O)Nc1cccc(F)c1 was tested, and the TGI was > 100 µM.
In the case of CCCCCCCCSC1=CC(=O)c2nc3ccccc3c3ccnc1c23, the GI50 is reported as > 100 µM and the TGI is reported as > 100 µM.
CCNC1C2(CCCCC2)NC(=O)C12CCCCC2 (stereo unspecified) was tested, and the TGI was > 100 µM.
O=c1n(CC2CO2)c(=O)n(CC2CO2)n1CC1CO1 (stereo unspecified) was tested, and the GI50 was 3.65 µM and the TGI was > 100 µM.
In the case of c1cc2c(cc1NC1=NCCO1)CCC2, the TGI is reported as > 10 µM.

These compounds were tested on RXF 393 renal (assay: growth of human tumour cells (NCI), 48 h).
NC(CSC(c1ccccc1)(c1ccccc1)c1ccc2c(c1)OCO2)C(=O)O (stereo unspecified) was tested, and the GI50 was 0.499 µM and the TGI was 54.1 µM.
For O=C(NCCNc1nccc(-c2c(-c3cccc(O)c3)nc3sccn23)n1)c1ccccc1O, the GI50 was 2.78 µM and the TGI was 16.8 µM.
CCCCCCCC(=O)SCC/C=C/[C@@H]1CC(=O)NCc2cccc(n2)C2=N[C@@](C)(CS2)C(=O)N[C@@H](C(C)C)C(=O)N1 gave a GI50 of 2.14 µM and a TGI of 19.9 µM.
Compound CC(C)=CCCc1c(C)ccc2c1C(=O)C(=O)C(C(C)C)=C2 has a TGI of 6.79 µM.
CSc1ccc(/C=C2\CN(C)C/C(=C\c3ccc(SC)cc3)C2=O)cc1 was tested, and the TGI was > 100 µM.
With Nc1ccc(C(=O)N/C(=C\c2ccc3c(c2)OCO3)c2nc3[nH]c(=S)[nH]c(=O)c3[nH]2)cc1 the TGI was > 100 µM.
With O[C@H]1[C@H]2c3cc4c(cc3CN3CCC(=C[C@@H]1O)[C@H]23)OCO4 the TGI was 2.6 µM.
For O=C(O)c1cc(C(=O)O)cc(N2C(=O)c3ccccc3C2=O)c1, the TGI was > 100 µM.
CNC(=O)c1ccccc1Nc1nc(Nc2ccc(N3CCOCC3)cc2OC)ncc1Cl showed a GI50 of 0.797 µM and a TGI of 3.31 µM.
In the case of COc1c2ccoc2c(/C=C/C=O)c2oc(-c3ccccc3)cc(=O)c12, the GI50 is reported as 4.26 µM and the TGI is reported as 14.7 µM.
CCN(CC)CC(C(=O)Nc1c(C)cccc1C)/C(C)=N\NC(=O)C[N+](C)(C)C (stereo unspecified) was tested, and the TGI was > 100 µM.
